In ChEMBL document CHEMBL5696441 (Nat Chem Biol, 2011):

Experiments:
[1] = test system: Mast/stem cell growth factor receptor Kit (Homo sapiens), P10721 [V559D,T670I]; test: Inhibition of KIT V559D/T670I mutant (unknown origin) assessed as remaining activity at 1 uM by Kinome scan method relative to control
[2] = target: Insulin receptor-related protein (Homo sapiens) (UniProt P14616); test: Inhibition of human INSRR assessed as residual activity at 1 uM using poly(Ala,Glu,Lys,Tyr)6:2:5:1 as substrate in presence of 33P-ATP by ProQinase assay relative to control
[3] = target: Serine/threonine-protein kinase PAK 3 (Homo sapiens) (UniProt O75914); test: Inhibition of human PAK3 assessed as residual activity at 1 uM using bio-4xCHKT as substrate in presence of 33P-ATP by ProQinase assay relative to control
Serine/threonine-protein kinase PAK 3 (Homo sapiens), sequence (O75914 whole entry, looked up): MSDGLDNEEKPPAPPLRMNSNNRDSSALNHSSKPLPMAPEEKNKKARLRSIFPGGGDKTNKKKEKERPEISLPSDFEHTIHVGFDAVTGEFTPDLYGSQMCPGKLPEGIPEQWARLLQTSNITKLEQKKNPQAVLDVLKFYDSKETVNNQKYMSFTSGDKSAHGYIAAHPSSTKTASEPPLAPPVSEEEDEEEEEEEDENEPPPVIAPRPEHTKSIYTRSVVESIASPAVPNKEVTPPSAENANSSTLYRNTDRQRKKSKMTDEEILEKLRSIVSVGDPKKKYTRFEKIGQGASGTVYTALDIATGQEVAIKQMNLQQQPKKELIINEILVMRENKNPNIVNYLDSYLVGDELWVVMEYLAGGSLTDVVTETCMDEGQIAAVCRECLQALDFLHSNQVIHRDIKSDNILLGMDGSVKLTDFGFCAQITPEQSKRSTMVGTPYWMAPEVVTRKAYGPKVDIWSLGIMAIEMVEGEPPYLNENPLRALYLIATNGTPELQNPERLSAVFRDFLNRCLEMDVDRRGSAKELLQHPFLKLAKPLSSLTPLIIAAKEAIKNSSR

[4] = test system: Tyrosine-protein kinase ABL1 (Homo sapiens), P00519 [M351T]; test: Inhibition of ABL1 M351T mutant (unknown origin) assessed as remaining activity at 1 uM by Kinome scan method relative to control
[5] = test system: Hepatocyte growth factor receptor (Homo sapiens), P08581 [Y1230D]; test: Inhibition of human MET Y1230D mutant assessed as residual activity at 1 uM using poly(Ala,Glu,Lys,Tyr)6:2:5:1 as substrate in presence of 33P-ATP by ProQinase assay relative to control
[6] = target: Tyrosine-protein kinase JAK1 (Homo sapiens) (UniProt P23458); test: Inhibition of JAK1 JH2 domain (unknown origin) assessed as remaining activity at 1 uM by Kinome scan method relative to control
[7] = test system: Epidermal growth factor receptor (Homo sapiens), P00533 [G719S]; test: Inhibition of EGFR G719S mutant (unknown origin) assessed as remaining activity at 1 uM by Kinome scan method relative to control
[8] = test system: Mus musculus; test: In vivo anti-inflammatory activity in Gal/LPS induced mouse assessed as TNF-alpha release at 3 mg/kg, po administered for 1 hrs; format: functional
[9] = test system: Fibroblast growth factor receptor 3 (Homo sapiens), P22607 [K650E]; test: Inhibition of human FGFR3 K650E mutant assessed as residual activity at 1 uM using PolyEY as substrate in presence of 33P-ATP by ProQinase assay relative to control
Fibroblast growth factor receptor 3 (Homo sapiens), P22607 [K650E], sequence (P22607 whole entry K650E): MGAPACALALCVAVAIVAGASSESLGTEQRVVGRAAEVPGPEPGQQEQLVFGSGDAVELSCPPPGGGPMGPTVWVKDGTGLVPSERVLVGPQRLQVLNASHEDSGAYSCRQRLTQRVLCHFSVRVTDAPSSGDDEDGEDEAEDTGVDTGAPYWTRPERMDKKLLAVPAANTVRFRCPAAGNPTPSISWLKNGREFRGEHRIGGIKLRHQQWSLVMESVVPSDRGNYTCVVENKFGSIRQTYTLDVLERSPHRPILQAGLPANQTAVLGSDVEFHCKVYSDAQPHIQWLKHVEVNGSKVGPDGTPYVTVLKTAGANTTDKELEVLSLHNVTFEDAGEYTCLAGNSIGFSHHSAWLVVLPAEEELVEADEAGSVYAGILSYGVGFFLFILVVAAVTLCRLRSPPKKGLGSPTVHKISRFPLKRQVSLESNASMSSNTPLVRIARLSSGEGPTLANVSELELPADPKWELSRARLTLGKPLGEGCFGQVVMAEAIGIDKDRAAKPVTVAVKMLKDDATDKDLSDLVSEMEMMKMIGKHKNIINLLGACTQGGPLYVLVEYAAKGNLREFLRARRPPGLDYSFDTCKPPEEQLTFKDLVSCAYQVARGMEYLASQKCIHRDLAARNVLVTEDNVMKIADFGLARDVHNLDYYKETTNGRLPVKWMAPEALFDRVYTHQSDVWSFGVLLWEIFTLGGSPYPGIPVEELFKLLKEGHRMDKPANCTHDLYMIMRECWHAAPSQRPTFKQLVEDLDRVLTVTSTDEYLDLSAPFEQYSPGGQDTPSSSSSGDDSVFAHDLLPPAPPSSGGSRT

[10] = target: Casein kinase II subunit alpha' (Homo sapiens) (UniProt P19784); test: Inhibition of human CK2alpha2 assessed as residual activity at 1 uM using casein as substrate in presence of 33P-ATP by ProQinase assay relative to control
Casein kinase II subunit alpha' (Homo sapiens), sequence (P19784 whole entry, looked up): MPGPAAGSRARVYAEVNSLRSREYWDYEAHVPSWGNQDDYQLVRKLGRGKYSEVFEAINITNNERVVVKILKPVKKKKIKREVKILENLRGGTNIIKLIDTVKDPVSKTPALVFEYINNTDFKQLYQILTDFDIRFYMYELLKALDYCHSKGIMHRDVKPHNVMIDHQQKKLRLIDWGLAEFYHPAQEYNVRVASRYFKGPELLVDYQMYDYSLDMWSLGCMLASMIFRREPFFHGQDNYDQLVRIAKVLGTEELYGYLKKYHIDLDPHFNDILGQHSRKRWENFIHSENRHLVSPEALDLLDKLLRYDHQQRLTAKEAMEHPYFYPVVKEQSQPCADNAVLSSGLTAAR

[11] = target: Interferon-induced, double-stranded RNA-activated protein kinase (Homo sapiens) (UniProt P19525); test: Inhibition of human EIF2AK2 assessed as residual activity at 1 uM using RB-CTF as substrate in presence of 33P-ATP by ProQinase assay relative to control
[12] = target: Mitogen-activated protein kinase 14 (Homo sapiens) (UniProt Q16539); test: Inhibition of human p38alpha assessed as residual activity at 1 uM using ATF2 as substrate in presence of 33P-ATP by ProQinase assay relative to control
Mitogen-activated protein kinase 14 (Homo sapiens), sequence (Q16539 whole entry): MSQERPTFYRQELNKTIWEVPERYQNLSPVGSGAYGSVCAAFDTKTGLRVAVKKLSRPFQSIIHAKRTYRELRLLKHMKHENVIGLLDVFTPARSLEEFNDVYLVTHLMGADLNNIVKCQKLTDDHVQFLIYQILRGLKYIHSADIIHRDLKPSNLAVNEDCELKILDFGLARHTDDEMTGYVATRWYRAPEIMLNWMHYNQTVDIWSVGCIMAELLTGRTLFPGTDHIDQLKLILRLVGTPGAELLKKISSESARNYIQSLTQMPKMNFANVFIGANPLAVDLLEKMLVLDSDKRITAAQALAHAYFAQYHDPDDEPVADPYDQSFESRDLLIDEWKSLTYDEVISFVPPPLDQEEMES

[13] = target: T1, TGF-beta receptor type-1 (Homo sapiens) (UniProt P36897); test: Inhibition of human TGFBR1 assessed as residual activity at 1 uM using RBER-GSK3(14-27) as substrate in presence of 33P-ATP by ProQinase assay relative to control
T1 sequence (whole entry): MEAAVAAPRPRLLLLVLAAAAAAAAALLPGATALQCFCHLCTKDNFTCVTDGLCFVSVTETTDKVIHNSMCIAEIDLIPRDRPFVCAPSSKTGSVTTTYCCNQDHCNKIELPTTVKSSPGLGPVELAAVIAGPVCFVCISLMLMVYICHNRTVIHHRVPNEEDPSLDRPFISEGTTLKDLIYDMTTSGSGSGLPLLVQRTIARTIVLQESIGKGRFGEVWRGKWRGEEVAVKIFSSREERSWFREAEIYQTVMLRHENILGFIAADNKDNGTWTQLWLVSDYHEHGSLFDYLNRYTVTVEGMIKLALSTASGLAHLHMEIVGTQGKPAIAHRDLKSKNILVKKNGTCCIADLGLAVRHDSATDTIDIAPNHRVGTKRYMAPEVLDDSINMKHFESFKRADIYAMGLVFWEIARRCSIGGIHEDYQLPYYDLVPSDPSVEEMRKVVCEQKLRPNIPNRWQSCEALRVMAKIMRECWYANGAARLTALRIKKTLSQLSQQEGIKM

[14] = test system: Epidermal growth factor receptor (Homo sapiens), P00533 [UNDEFINED MUTATION]; test: Inhibition of EGFR L747-E749del/A750P mutant (unknown origin) assessed as remaining activity at 1 uM by Kinome scan method relative to control
[15] = target: Ephrin type-A receptor 4 (Homo sapiens) (UniProt P54764); test: Inhibition of human EPHA4 assessed as residual activity at 1 uM using polyEY as substrate in presence of 33P-ATP by ProQinase assay relative to control
Ephrin type-A receptor 4 (Homo sapiens), sequence (P54764 whole entry): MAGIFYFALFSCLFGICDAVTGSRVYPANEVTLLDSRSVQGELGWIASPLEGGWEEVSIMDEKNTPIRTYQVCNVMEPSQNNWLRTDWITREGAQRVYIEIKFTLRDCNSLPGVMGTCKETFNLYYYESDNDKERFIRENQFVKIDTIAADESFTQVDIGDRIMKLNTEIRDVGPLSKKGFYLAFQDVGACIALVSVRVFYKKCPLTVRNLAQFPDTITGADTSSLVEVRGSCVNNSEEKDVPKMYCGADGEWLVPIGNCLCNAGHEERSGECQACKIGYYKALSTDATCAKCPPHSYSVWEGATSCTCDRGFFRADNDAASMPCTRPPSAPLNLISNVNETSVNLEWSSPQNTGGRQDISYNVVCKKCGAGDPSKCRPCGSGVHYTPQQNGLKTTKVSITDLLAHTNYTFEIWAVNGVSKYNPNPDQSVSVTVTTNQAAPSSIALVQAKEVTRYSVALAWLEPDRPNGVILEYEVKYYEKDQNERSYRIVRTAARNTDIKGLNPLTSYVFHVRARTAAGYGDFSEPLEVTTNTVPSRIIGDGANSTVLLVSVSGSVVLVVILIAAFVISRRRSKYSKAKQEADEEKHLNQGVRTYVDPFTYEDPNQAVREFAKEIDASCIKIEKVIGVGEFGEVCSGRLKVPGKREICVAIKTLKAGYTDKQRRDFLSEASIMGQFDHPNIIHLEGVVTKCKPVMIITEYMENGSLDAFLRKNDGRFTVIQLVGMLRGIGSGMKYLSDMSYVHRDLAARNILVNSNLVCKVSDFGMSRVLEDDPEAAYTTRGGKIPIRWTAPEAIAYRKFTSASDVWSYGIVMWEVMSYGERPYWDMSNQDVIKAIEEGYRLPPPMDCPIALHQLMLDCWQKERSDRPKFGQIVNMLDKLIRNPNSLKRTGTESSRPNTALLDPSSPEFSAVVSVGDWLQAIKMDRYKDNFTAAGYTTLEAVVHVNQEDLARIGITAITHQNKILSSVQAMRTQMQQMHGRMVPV

[16] = target: Cyclin-dependent kinase 15 (Homo sapiens) (UniProt Q96Q40); test: Inhibition of PFTAIRE2 (unknown origin) assessed as remaining activity at 1 uM by Kinome scan method relative to control
Cyclin-dependent kinase 15 (Homo sapiens), sequence (Q96Q40 whole entry): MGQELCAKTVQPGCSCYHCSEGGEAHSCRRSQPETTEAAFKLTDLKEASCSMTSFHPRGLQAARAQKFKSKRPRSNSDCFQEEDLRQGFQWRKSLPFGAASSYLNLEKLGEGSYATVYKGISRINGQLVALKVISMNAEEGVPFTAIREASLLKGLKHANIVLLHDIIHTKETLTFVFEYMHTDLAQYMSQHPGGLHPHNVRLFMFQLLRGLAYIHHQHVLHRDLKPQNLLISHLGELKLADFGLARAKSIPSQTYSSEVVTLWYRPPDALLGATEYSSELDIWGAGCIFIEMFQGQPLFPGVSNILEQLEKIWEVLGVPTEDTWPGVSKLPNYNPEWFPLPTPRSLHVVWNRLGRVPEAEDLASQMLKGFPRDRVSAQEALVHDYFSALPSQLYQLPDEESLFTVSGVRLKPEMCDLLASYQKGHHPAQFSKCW

[17] = target: Serine/threonine-protein kinase 17B (Homo sapiens) (UniProt O94768); test: Inhibition of DRAK2 (unknown origin) assessed as remaining activity at 1 uM by Kinome scan method relative to control
Serine/threonine-protein kinase 17B (Homo sapiens), sequence (O94768 whole entry): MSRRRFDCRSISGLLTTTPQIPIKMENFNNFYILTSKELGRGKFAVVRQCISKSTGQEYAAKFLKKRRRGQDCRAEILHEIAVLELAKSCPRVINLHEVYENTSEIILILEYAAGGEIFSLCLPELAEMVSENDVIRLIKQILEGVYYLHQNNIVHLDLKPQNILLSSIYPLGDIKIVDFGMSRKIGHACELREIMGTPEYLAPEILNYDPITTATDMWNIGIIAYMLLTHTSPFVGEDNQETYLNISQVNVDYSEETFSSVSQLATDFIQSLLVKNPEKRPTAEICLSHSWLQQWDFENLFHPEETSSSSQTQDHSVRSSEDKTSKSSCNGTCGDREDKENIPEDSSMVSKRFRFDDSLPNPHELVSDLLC

[18] = target: Dual specificity mitogen-activated protein kinase kinase 2 (Homo sapiens) (UniProt P36507); test: Inhibition of human MEK2 assessed as residual activity at 1 uM using RBER-IRStide as substrate in presence of 33P-ATP by ProQinase assay relative to control
[19] = target: Tyrosine-protein kinase Fes/Fps (Homo sapiens) (UniProt P07332); test: Inhibition of FES (unknown origin) assessed as remaining activity at 1 uM by Kinome scan method relative to control
[20] = target: DNA-dependent protein kinase catalytic subunit (Homo sapiens) (UniProt P78527); test: Inhibition of human DNPK1 assessed as residual activity at 1 uM using RBER-GSK3 as substrate in presence of 33P-ATP by ProQinase assay relative to control
[21] = target: Protein kinase C beta type (Homo sapiens) (UniProt P05771); test: Inhibition of human PKCbeta2 assessed as residual activity at 1 uM using 3xChocktide-PKC as substrate in presence of 33P-ATP by ProQinase assay relative to control
Protein kinase C beta type (Homo sapiens), sequence (P05771 2-671 limits assumed): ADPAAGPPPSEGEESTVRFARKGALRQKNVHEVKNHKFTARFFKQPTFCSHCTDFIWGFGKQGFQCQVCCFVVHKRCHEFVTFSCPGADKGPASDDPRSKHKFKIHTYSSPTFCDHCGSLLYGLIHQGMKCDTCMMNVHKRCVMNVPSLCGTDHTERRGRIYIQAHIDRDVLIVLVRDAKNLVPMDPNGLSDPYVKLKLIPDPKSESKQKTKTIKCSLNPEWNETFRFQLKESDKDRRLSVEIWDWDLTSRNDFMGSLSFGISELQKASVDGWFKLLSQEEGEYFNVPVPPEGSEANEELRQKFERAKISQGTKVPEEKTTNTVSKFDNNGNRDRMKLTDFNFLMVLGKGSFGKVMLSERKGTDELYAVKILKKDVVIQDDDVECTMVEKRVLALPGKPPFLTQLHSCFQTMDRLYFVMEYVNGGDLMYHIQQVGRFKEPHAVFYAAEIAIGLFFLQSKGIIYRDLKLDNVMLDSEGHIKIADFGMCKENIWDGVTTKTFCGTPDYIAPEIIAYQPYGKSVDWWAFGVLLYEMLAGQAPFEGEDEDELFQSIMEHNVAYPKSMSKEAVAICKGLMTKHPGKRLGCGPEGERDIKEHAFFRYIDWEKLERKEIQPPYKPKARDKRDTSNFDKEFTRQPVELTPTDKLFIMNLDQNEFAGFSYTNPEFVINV

[22] = target: Glycogen synthase kinase-3 beta (Homo sapiens) (UniProt P49841); test: Inhibition of GSK3beta (unknown origin) assessed as remaining activity at 1 uM by Kinome scan method relative to control
Glycogen synthase kinase-3 beta (Homo sapiens), sequence (P49841 whole entry, looked up): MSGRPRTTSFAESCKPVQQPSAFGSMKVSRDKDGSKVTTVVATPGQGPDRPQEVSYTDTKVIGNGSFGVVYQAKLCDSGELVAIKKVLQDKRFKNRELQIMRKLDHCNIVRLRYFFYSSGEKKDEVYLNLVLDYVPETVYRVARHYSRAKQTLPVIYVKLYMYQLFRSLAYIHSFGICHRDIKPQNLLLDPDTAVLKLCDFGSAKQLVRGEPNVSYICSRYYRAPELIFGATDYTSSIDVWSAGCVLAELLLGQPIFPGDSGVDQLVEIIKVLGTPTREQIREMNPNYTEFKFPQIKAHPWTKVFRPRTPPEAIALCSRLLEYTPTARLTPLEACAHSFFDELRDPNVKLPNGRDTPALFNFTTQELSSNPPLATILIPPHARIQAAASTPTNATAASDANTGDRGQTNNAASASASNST

[23] = Anti-inflammatory activity against human derived medium respond PBMC cells assessed as inhibition in stimulated IL-10 cytokine release incubated for 2 hrs in the presence of LPS/SEB/aCD28 by Luminex based sandwich immunoassay; format: functional, cell-based

`O=C1c2ccc(Nc3ccc(F)cc3F)cc2CCc2ccc(OC[C@H](O)CO)cc21` [Skepinone-L] gave an Activity [1] of 94%, an Activity [2] of 98% and an Activity [3] of 107%. For the same compound, the Activity [4] was 100%, the Activity [5] was 95% and the Activity [6] was 86%. The Activity [7] was 94%, the Activity [8] was 36.3 pg/mL and the Activity [9] was 99%. It also gave an Activity [10] of 87%, an Activity [11] of 86% and an Activity [12] of 0%. The Activity [13] was 93%, the Activity [14] was 82% and the Activity [15] was 93%. The Activity [16] was 85%, the Activity [17] was 99% and the Activity [18] was 99%. For the same compound, the Activity [19] was 100%, the Activity [20] was 82% and the Activity [21] was 97%. For the same compound, the Activity [22] was 97% and the IC50 [23] was 60 nM.
